Data reported in US10072282B2, “Modulators for SIRT6 and assays for screening same” (Cornell University, priority 2010, dated 2018).

Experiments:
PfSir2a = PfSir2a (Plasmodium falciparum, UniProt Q8IE47); test: Fluorogenic acyl peptide-AMC assay with PfSir2a; assay type: biochemical; conditions: AMC released by trypsin, fluorescence
From the text: (§1) FIGS. 6A, 6B. Charts showing the difference between fluorogenic acetyl peptide-AMC substrate (A) and heptyl peptide-AMC substrate (B) detection ability of Sirt6 and PfSir2 activity.
(§2) With respect to the first reaction (deacylation by Sirt6, PfSir2a, or Sirt7), the pH for the reaction can be selected by taking the optimal pH of Sirt6, PfSir2a, or Sirt7 into consideration. The pH is typically adjusted to a pH of 6.0 to 8.5, or more particularly, a pH of 6.8 to 8.5. The reaction buffer preferably provides the above-mentioned pH. For example, Tris-HCl, HEPES-KOH, and other such buffers may be used in the instant method. More specifically, for example, 20 mM Tris-HCl having a pH of 7.4 can be used. Generally, NAD is a co-substrate required for Sirt6, PfSir2a, or Sirt7 functioning, and is typically used at about 0.5 mM concentration. Salts and preservatives are generally also included in the reaction solution. […]
(§3) For sirtuins with robust deacetylase activity, a fluorogenic assay has been used to detect the activity and screen for inhibitors/activators (FIG. 5, top). […] After a sirtuin removes the acetyl group, the AMC can be released by trysin, which produces a fluorescence signal. Thus, the presence of a compound that can change the activity of sirtuin being analyzed can be detected by monitoring the fluoroscence released in the reaction. […]

Sirt6 = Sirt6 (Homo sapiens, UniProt Q8N6T7); test: Fluorogenic acyl peptide-AMC assay with Sirt6; assay type: biochemical; conditions: AMC released by trypsin, fluorescence
Sequence of Sirt6 (Q8N6T7 whole entry): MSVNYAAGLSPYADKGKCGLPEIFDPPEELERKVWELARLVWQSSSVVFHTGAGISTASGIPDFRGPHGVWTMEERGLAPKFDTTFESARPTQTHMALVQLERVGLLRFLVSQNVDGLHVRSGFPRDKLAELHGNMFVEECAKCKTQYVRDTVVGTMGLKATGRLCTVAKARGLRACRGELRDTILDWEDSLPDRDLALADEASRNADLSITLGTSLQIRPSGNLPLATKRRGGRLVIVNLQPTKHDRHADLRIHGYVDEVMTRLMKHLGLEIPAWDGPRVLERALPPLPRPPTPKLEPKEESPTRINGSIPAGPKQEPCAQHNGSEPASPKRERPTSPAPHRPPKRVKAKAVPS
From the text: as §1, §2, §3

Sequence of PfSir2a (Q8IE47 whole entry): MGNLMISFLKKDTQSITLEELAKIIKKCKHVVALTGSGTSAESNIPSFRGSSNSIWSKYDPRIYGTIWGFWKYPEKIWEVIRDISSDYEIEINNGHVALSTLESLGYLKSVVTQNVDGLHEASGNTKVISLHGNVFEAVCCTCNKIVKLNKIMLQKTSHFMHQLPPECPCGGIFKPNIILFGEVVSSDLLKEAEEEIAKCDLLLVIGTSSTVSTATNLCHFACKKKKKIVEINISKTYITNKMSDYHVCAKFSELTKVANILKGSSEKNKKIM

Substance	detection of PfSir2a activity with peptide-AMC substrate (PfSir2a)	detection of Sirt6 activity with peptide-AMC substrate (Sirt6)
ISGASE(acetyl-K)-AMC peptide [acetyl peptide-AMC]	not detectable	not detectable
ISGASE(heptanoyl-K)-AMC peptide [heptanoyl peptide-AMC]	can be used to detect the activity of Sirt6 and PfSir2a	can be used to detect the activity of Sirt6 and PfSir2a
